Reference: US6589983B1, “Benzopyran derivative” (Nissan Chemical Industries, Ltd., priority 1999, dated 2003)

system: guinea-pig left atrium muscle; experiment: Effects of compound on the functional refractory period in guinea-pig left atrium muscle; conditions: isolated atrium muscle, stimulated at 1 Hz, compound added cumulatively, 15 minutes per concentration, 36±1° C.
Description: Effects of compound on the functional refractory period in guinea-pig left atrium muscle and right ventricular papillary muscle
Hearts were removed from guinea-pigs, and left atrium muscle or right ventricular papillary muscle were isolated therefrom in a Krebs-Henseleit solution aerated with 95% O2+5% CO2. The samples were stimulated electrically at a rate of 1 Hz and a voltage of 1.5 times of the threshold value reacted to stimulation (basic stimulation; S1) by using an electric stimulating apparatus. The contraction occurred at that time was recorded by a thermal stylus recorder via a FD pickup and a strain pressure amplifier. The functional refractory period is defined as the shortest time interval between S1 resulting from determinable contraction and an extra stimulation (S2). The time interval between S1 and S2 in the left atrium muscle sample was started from 150 msec, decreased in 10 msec steps until 100 msec, and thereafter 5 msec steps to the functional refractory period. For the right ventricular papillary muscle sample, it was started from 300 msec and decreased in 10 msec steps until the functional refractory period. Herein, S2 was set at twice of the threshold value which reacted to stimulation. The experimental temperature was 36±1° C. […] After determining the basic value before addition of the compound, the compound was added cumulatively, incubated for 15 minutes for respective concentration, and thereafter the functional refractory period was determined.

Row | SMILES | Prolongation effect on FRP EC20 [µM]
1 | CC(=O)Nc1cc2c(cc1[N+](=O)[O-])OC(C)(C)[C@H](O)[C@H]2NCCc1ccc([N+](=O)[O-])cc1 [compound 8] | 1.8
2 | CC(=O)Nc1cc2c(cc1[N+](=O)[O-])OC(C)(C)[C@H](O)[C@H]2NCCc1ccc(Cl)cc1 [compound 6] | 1.4
3 | CC(=O)Nc1cc2c(cc1[N+](=O)[O-])OC(C)(C)[C@H](O)[C@H]2NCCc1ccccc1 [compound 1] | 6.1
4 | CC(=O)Nc1cc2c(cc1[N+](=O)[O-])OC(C)(C)[C@H](O)[C@H]2NCCCCc1ccccc1 [compound 3] | 4.0
5 | COc1ccc(CCN[C@H]2c3cc(NC(C)=O)c([N+](=O)[O-])cc3OC(C)(C)[C@@H]2O)cc1 [compound 5] | 5.5
6 | CC(=O)Nc1cc2c(cc1[N+](=O)[O-])OC(C)(C)[C@H](O)[C@H]2NCCc1ccc(O)cc1 [compound 4] | 5.0

system: not given; experiment: not given; conditions: not given

Row | SMILES | melting point
7 | CC(=O)Nc1cc2c(cc1[N+](=O)[O-])OC(C)(C)[C@H](O)[C@H]2NCCc1ccc([N+](=O)[O-])cc1 (stereo in doubt) | 211 to 213 °C (dec.)
